From ChEMBL document CHEMBL1201862, “PubChem BioAssay data set” (2004)
Activity calls are given as the source filed them.

Legend:
Type in all cases: functional
[1] = target: T1, Heat shock factor protein 1 (Mus musculus, UniProt P38532); test: HSF1 potentiators in luciferase reporter cells, confirmation, cell-based, NIH3T3, luminescence, dose retest (AID 435004);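 note: stress induced by proteasome inhibitor MG132 added 30 min after compound; luciferase reporter driven by HSF1 response element in NIH3T3 cells; actives raise luminescence as potentiators of the MG132 stress response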
T1 sequence (P38532 whole entry): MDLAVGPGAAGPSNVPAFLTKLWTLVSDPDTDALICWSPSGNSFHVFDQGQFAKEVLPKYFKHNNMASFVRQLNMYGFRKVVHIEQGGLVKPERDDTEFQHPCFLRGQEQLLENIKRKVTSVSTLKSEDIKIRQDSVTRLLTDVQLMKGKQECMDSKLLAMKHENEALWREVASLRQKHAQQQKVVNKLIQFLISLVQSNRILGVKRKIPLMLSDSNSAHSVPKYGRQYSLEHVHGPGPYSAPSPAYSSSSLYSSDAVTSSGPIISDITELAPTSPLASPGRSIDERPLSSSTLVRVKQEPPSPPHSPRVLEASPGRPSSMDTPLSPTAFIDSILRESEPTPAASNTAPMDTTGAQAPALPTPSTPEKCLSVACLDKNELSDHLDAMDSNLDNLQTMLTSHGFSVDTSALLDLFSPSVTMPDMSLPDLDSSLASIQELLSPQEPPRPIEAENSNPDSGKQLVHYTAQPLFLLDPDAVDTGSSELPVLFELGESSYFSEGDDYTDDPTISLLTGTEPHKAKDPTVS

Aurora kinase A = Aurora kinase A (Homo sapiens, UniProt O14965);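 note: value from the Navigating the Kinome kinase panel profiling, panel entry STK6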
[2] = target: Serine/threonine-protein kinase PAK 4 (Homo sapiens, UniProt O96013);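 note: value obtained within a kinome profiling panel in which PAK4 was one of the panel members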
Sequence of Serine/threonine-protein kinase PAK 4 (O96013 whole entry): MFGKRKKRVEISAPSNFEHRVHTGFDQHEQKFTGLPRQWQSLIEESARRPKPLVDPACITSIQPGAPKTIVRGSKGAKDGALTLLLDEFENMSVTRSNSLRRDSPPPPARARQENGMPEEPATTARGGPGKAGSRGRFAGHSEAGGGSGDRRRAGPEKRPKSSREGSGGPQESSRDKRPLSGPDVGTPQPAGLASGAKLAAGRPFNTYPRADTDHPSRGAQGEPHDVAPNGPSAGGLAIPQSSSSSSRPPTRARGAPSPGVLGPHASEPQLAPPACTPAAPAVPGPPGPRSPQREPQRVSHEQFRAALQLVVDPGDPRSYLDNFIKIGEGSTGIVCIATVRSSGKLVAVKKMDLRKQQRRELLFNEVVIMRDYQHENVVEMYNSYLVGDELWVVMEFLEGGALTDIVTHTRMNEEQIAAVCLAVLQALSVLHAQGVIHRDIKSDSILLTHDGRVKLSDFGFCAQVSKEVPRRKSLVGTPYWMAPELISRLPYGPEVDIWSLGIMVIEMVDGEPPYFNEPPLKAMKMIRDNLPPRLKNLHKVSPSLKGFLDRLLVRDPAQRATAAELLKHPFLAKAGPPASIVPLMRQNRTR

Sequence of Aurora kinase A (O14965 whole entry): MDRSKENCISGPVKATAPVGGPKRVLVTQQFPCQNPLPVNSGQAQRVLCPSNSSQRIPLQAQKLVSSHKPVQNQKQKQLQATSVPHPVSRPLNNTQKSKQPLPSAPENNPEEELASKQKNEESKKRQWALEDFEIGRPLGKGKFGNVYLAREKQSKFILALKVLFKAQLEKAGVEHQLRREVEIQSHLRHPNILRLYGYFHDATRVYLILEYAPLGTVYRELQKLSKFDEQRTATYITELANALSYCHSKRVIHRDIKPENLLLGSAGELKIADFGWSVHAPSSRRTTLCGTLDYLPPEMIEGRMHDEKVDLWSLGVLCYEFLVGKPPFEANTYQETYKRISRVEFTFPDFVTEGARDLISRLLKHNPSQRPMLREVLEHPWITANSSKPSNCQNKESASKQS

Ki (Aurora kinase A) | Ki [2] | Compound | EC50 [1]
– | – | CCCC(=O)NC(c1ccc(N(C)C)cc1)c1ccc2cccnc2c1O (stereo not drawn) | > 260000 nM (inactive)
> 1580 nM (inactive) | 2000 nM (active) | O=C1NC(=O)C(c2c[nH]c3ccccc23)=C1c1nc(N2CCNCC2)nc2ccccc12 | –
